Among the data in patent US20060100259A1, “Process for the preparation of substituted triazole compounds” (priority 2004, published 2006) are melting point values, retold here.

Compound `Nc1nc(Nc2ccc(S(N)(=O)=O)cc2)nn1C(=O)c1ccccc1Cl` [Compound #2, N^3-[(4-aminosulfonyl)phenyl]-1-(2′-chlorobenzoyl)-1H-1,2,4-triazole-3,5-diamine] registered a melting point of 237 to 242.5 °C.
With `COc1ccccc1C(=O)n1nc(Nc2ccc(S(N)(=O)=O)cc2)nc1N` [Compound #3, N^3-[(4-aminosulfonyl)phenyl]-1-(2′-methoxybenzoyl)-1H-1,2,4-triazole-3 5-diamine] the figure was 217 to 221.5 °C; with `Nc1nc(Nc2ccc(S(N)(=O)=O)cc2)nn1C(=O)c1ccccc1Br` [Compound #4, N^3-[(4-aminosulfonyl)phenyl]-1-(2′-bromobenzoyl)-1H-1,2,4-triazole-3,5-diamine], 246 to 248 °C.
Compound `Nc1nc(Nc2ccc(S(N)(=O)=O)cc2)nn1C(=O)c1cccc([N+](=O)[O-])c1` [Compound #5, N^3-[(4-aminosulfonyl)phenyl]-1-(3′-nitrobenzoyl)-1H-1,2,4-triazole-3,5-diamine] yielded a melting point of 260 to 262 °C.
The compound `Nc1nc(Nc2ccc(S(N)(=O)=O)cc2)nn1C(=O)c1cccc(C(F)(F)F)c1` [Compound #6, N^3-[(4-aminosulfonyl)phenyl]-1-[3′-(trifluoromethyl)benzoyl]-1H-1,2,4-triazole-3,5-diamine] yielded a melting point of 251 to 253 °C.
With `Nc1nc(Nc2ccc(S(N)(=O)=O)cc2)nn1C(=O)c1cccc(Br)c1` [Compound #7, N^3-[(4-aminosulfonyl)phenyl]-1-(3′-bromobenzoyl)-1H-1,2,4-triazole-3,5-diamine], the melting point is 242 to 244 °C.
With `Nc1nc(Nc2ccc(S(N)(=O)=O)cc2)nn1C(=O)c1ccc([N+](=O)[O-])cc1` [Compound #9, N^3-[(4-aminosulfonyl)phenyl]-1-(4′-nitrobenzoyl)-1H-1,2,4-triazole-3,5-diamine] the figure was 336 to 338 °C; with `Nc1nc(Nc2ccc(S(N)(=O)=O)cc2)nn1C(=O)c1ccc(O)cc1` [Compound #10, N^3-[(4-aminosulfonyl)phenyl]-1-(4′-hydroxybenzoyl)-1H-1,2,4-triazole-3,5-diamine], more than 300 °C.
The figure for `COc1ccc(C(=O)n2nc(Nc3ccc(S(N)(=O)=O)cc3)nc2N)cc1` [Compound #12, N^3-[(4-aminosulfonyl)phenyl]-1-(4′-methoxybenzoyl)-1H-1,2,4-triazole-3,5-diamine] is 244.5 to 247.5 °C; for `CC(=O)n1nc(Nc2ccc(S(N)(=O)=O)cc2)nc1N` [Compound #16, N^3-[(4-aminosulfonyl)phenyl]-1-acetyl-1H-1,2,4-triazole-3,5-diamine] it is 334 to 336 °C; for `Nc1nc(Nc2ccc(S(N)(=O)=O)cc2)nn1C(=O)c1ccco1` [Compound #17, N^3-[(4-aminosulfonyl)phenyl]-1-(2′-furoyl)-1H-1,2,4-triazole-3,5-diamine] it is more than 300 °C.
The figure for `Cc1ccc(C(=O)n2nc(Nc3ccccc3)nc2N)cc1` [Compound #25, N^3-phenyl-1-(4′-methylbenzoyl)-1,2,4-triazole-3,5-diamine] is 222.5 to 224 °C.
Regarding `Nc1nc(Nc2ccc(S(N)(=O)=O)cc2)nn1C(=O)c1ccc(Cl)cc1` [Compound #28, N^3-[(4-aminosulfonyl)phenyl]-1-(4′-chlorobenzoyl)-1H-1,2,4-triazole-3,5-diamine], the melting point was more than 260 °C.
With `COc1ccccc1C(=O)n1nc(Nc2ccccc2)nc1N` [Compound #29, N^3-phenyl-1-(2′methoxybenzoyl)-1,2,4-triazole-3,5-diamine] the figure was 89.5 to 94 °C; with `COc1cccc(C(=O)n2nc(Nc3ccccc3)nc2N)c1` [Compound #30, N^3-phenyl-1-(3′-methoxybenzoyl)-1,2,4-triazole-3,5-diamine], 174 to 184 °C; with `Nc1nc(Nc2ccccc2)nn1C(=O)c1ccco1` [Compound #31, N^3-phenyl-1-(2-furoyl)-1,2,4-triazole-3,5-diamine], 201 to 202 °C.
